Source: ChEMBL document CHEMBL1153563, “Comparative in vitro activities of caspofungin and micafungin, determined using the method of the European Committee on Antimicrobial Susceptibility Testing, against yeast isolates obtained in France in 2005-2006” (2008)
In brackets after ≈: the same amount, converted by molar mass. *1 amine or outer side, *2 acyl side, *3 side chain or, on linkers, in order; H or OH if unused. Where a SMILES comes first, the peptide text is derived from it. Bridges are numbered along the chain shown (N, C = ends). [ ]: non-standard residue; d: D form. The star is where a group is joined. hTyr(3S-OH,4S-OH,3'-OSO3H) = N[C@H](C(=O)O)[C@H](O)[C@@H](O)c1ccc(O)c(OS(=O)(=O)O)c1; Orn(4R-OH,5R-OH) = O=C([C@H](C[C@@H](O)[C@@H](O)N[*:3])N[*:1])[*:2]; Pro(3S-OH,4S-Me) = C[C@H]1CN[C@H](C(=O)O)[C@H]1O; X1 = CCCCCOc1ccc(-c2cc(-c3ccc(C(=O)*)cc3)no2)cc1; Gln(3R-OH) = NC(=O)C[C@@H](O)[C@H](N)C(=O)O; Hyp = O=C(O)[C@@H]1C[C@@H](O)CN1

Experiments:
Assay type in all cases: functional
Candida albicans = test: Antifungal activity against Candida albicans after 24 to 48 hrs by AFST-EUCAST based broth microdilution method
Nakaseomyces glabratus = test: Antifungal activity against Candida glabrata after 24 to 48 hrs by AFST-EUCAST based broth microdilution method
Candida parapsilosis = test: Antifungal activity against Candida parapsilosis ATCC 22019 after 24 to 48 hrs by AFST-EUCAST based broth microdilution method; conditions: Lodderomyces parapsilosis
Candida tropicalis = test: Antifungal activity against Candida tropicalis after 24 to 48 hrs by AFST-EUCAST based broth microdilution method
[1] = system: Meyerozyma guilliermondii; test: Antifungal activity against Candida guilliermondii after 24 to 48 hrs by AFST-EUCAST based broth microdilution method
Pichia kudriavzevii = test: Antifungal activity against Candida krusei ATCC 6258 after 24 to 48 hrs by AFST-EUCAST based broth microdilution method
Kluyveromyces marxianus = test: Antifungal activity against Candida kefyr after 24 to 48 hrs by AFST-EUCAST based broth microdilution method
[Candida] haemuloni = Antifungal activity against Candida haemulonii after 24 to 48 hrs by AFST-EUCAST based broth microdilution method; conditions: Candidozyma haemuli
Clavispora lusitaniae = test: Antifungal activity against Candida lusitaniae after 24 to 48 hrs by AFST-EUCAST based broth microdilution method
Meyerozyma caribbica = test: Antifungal activity against Candida fermentati after 24 to 48 hrs by AFST-EUCAST based broth microdilution method
Candida dubliniensis = test: Antifungal activity against Candida dubliniensis after 24 to 48 hrs by AFST-EUCAST based broth microdilution method
Yarrowia lipolytica = test: Antifungal activity against Candida lipolytica after 24 to 48 hrs by AFST-EUCAST based broth microdilution method
Debaryomyces hansenii = test: Antifungal activity against Candida famata after 24 to 48 hrs by AFST-EUCAST based broth microdilution method
Wickerhamomyces anomalus = test: Antifungal activity against Candida pelliculosa after 24 to 48 hrs by AFST-EUCAST based broth microdilution method; conditions: Hansenula anomala
Diutina rugosa = test: Antifungal activity against Candida rugosa after 24 to 48 hrs by AFST-EUCAST based broth microdilution method
Cyberlindnera jadinii = test: Antifungal activity against Candida utilis after 24 to 48 hrs by AFST-EUCAST based broth microdilution method; conditions: Williopsis jadinii
[Candida] inconspicua = Antifungal activity against Candida inconspicua after 24 to 48 hrs by AFST-EUCAST based broth microdilution method; conditions: Pichia inconspicua
[Candida] intermedia = Antifungal activity against Candida intermedia after 24 to 48 hrs by AFST-EUCAST based broth microdilution method; conditions: Sungouiella intermedia
Candida africana = test: Antifungal activity against Candida africana after 24 to 48 hrs by AFST-EUCAST based broth microdilution method
Pichia fermentans = test: Antifungal activity against Candida lambica after 24 to 48 hrs by AFST-EUCAST based broth microdilution method
Nakaseomyces nivariensis = test: Antifungal activity against Candida nivariensis after 24 to 48 hrs by AFST-EUCAST based broth microdilution method
Pichia norvegensis = test: Antifungal activity against Candida norvegensis after 24 to 48 hrs by AFST-EUCAST based broth microdilution method
Kluyveromyces lactis = test: Antifungal activity against Candida sphaerica after 24 to 48 hrs by AFST-EUCAST based broth microdilution method
Saccharomyces cerevisiae = test: Antifungal activity against Saccharomyces cerevisiae after 24 to 48 hrs by AFST-EUCAST based broth microdilution method
Geotrichum = test: Antifungal activity against Geotrichum after 24 to 48 hrs by AFST-EUCAST based broth microdilution method
Cyberlindnera saturnus = test: Antifungal activity against Williopsis saturnus after 24 to 48 hrs by AFST-EUCAST based broth microdilution method
Kodamaea ohmeri = test: Antifungal activity against Kodamaea ohmeri after 24 to 48 hrs by AFST-EUCAST based broth microdilution method
Zygosaccharomyces = test: Antifungal activity against Zygosaccharomyces after 24 to 48 hrs by AFST-EUCAST based broth microdilution method
Cryptococcus neoformans = test: Antifungal activity against […] after 24 to 48 hrs by AFST-EUCAST based broth microdilution method
Trichosporon = test: Antifungal activity against Trichosporon after 24 to 48 hrs by AFST-EUCAST based broth microdilution method
Rhodotorula mucilaginosa = test: Antifungal activity against Rhodotorula mucilaginosa after 24 to 48 hrs by AFST-EUCAST based broth microdilution method

## CCCCCOc1ccc(-c2cc(-c3ccc(C(=O)N[C@H]4C[C@@H](O)[C@@H](O)NC(=O)[C@@H]5[C@@H](O)[C@@H](C)CN5C(=O)[C@H]([C@H](O)CC(N)=O)NC(=O)[C@H]([C@H](O)[C@@H](O)c5ccc(O)c(OS(=O)(=O)O)c5)NC(=O)[C@@H]5C[C@@H](O)CN5C(=O)[C@H]([C@@H](C)O)NC4=O)cc3)no2)cc1 [MICAFUNGIN] (X1-[Orn(4R-OH,5R-OH)]T[Hyp][hTyr(3S-OH,4S-OH,3'-OSO3H)][Gln(3R-OH)][Pro(3S-OH,4S-Me)]; lactam 1-C)
Candida albicans
  MIC50: 0.03 µg/mL (≈ 0.0236 µM)
  MIC90: 0.06 µg/mL (≈ 0.0472 µM)
Nakaseomyces glabratus
  MIC50: 0.03 µg/mL (≈ 0.0236 µM)
  MIC90: 0.06 µg/mL (≈ 0.0472 µM)
Candida parapsilosis
  MIC50: 2 µg/mL (≈ 1.57 µM)
  MIC90: 2 µg/mL (≈ 1.57 µM)
Candida tropicalis
  MIC50: 0.06 µg/mL (≈ 0.0472 µM)
  MIC90: 0.125 µg/mL (≈ 0.0984 µM)
[1]
  MIC50: 1 µg/mL (≈ 0.787 µM)
  MIC90: 2 µg/mL (≈ 1.57 µM)
Pichia kudriavzevii
  MIC50: 0.25 µg/mL (≈ 0.197 µM)
  MIC90: 0.25 µg/mL (≈ 0.197 µM)
Kluyveromyces marxianus
  MIC50: 0.125 µg/mL (≈ 0.0984 µM)
  MIC90: 0.25 µg/mL (≈ 0.197 µM)
[Candida] haemuloni
  MIC50: 0.25 µg/mL (≈ 0.197 µM)
  MIC90: 0.25 µg/mL (≈ 0.197 µM)
Clavispora lusitaniae
  MIC50: 0.25 µg/mL (≈ 0.197 µM)
  MIC90: 0.5 µg/mL (≈ 0.394 µM)
Meyerozyma caribbica
  MIC50: 1 µg/mL (≈ 0.787 µM)
  MIC90: 1 µg/mL (≈ 0.787 µM)
Candida dubliniensis
  MIC50: 0.06 µg/mL (≈ 0.0472 µM)
  MIC90: 1 µg/mL (≈ 0.787 µM)
Yarrowia lipolytica
  MIC50: 0.06 µg/mL (≈ 0.0472 µM)
  MIC90: 1 µg/mL (≈ 0.787 µM)
Debaryomyces hansenii
  MIC50: 0.06 µg/mL (≈ 0.0472 µM)
  MIC90: 1 µg/mL (≈ 0.787 µM)
Wickerhamomyces anomalus
  MIC50: 0.06 µg/mL (≈ 0.0472 µM)
  MIC90: 1 µg/mL (≈ 0.787 µM)
Diutina rugosa
  MIC50: 0.06 µg/mL (≈ 0.0472 µM)
  MIC90: 1 µg/mL (≈ 0.787 µM)
Cyberlindnera jadinii
  MIC50: 0.06 µg/mL (≈ 0.0472 µM)
  MIC90: 1 µg/mL (≈ 0.787 µM)
[Candida] inconspicua
  MIC50: 0.06 µg/mL (≈ 0.0472 µM)
  MIC90: 1 µg/mL (≈ 0.787 µM)
[Candida] intermedia
  MIC50: 0.06 µg/mL (≈ 0.0472 µM)
  MIC90: 1 µg/mL (≈ 0.787 µM)
Candida africana
  MIC50: 0.06 µg/mL (≈ 0.0472 µM)
  MIC90: 1 µg/mL (≈ 0.787 µM)
Pichia fermentans
  MIC50: 0.06 µg/mL (≈ 0.0472 µM)
  MIC90: 1 µg/mL (≈ 0.787 µM)
Nakaseomyces nivariensis
  MIC50: 0.06 µg/mL (≈ 0.0472 µM)
  MIC90: 1 µg/mL (≈ 0.787 µM)
Pichia norvegensis
  MIC50: 0.06 µg/mL (≈ 0.0472 µM)
  MIC90: 1 µg/mL (≈ 0.787 µM)
Kluyveromyces lactis
  MIC50: 0.06 µg/mL (≈ 0.0472 µM)
  MIC90: 1 µg/mL (≈ 0.787 µM)
Saccharomyces cerevisiae
  MIC50: 0.25 µg/mL (≈ 0.197 µM)
  MIC90: 16 µg/mL (≈ 12.6 µM)
Geotrichum
  MIC50: 0.25 µg/mL (≈ 0.197 µM)
  MIC90: 16 µg/mL (≈ 12.6 µM)
Cyberlindnera saturnus
  MIC50: 0.25 µg/mL (≈ 0.197 µM)
  MIC90: 16 µg/mL (≈ 12.6 µM)
Kodamaea ohmeri
  MIC50: 0.25 µg/mL (≈ 0.197 µM)
  MIC90: 16 µg/mL (≈ 12.6 µM)
Zygosaccharomyces
  MIC50: 0.25 µg/mL (≈ 0.197 µM)
  MIC90: 16 µg/mL (≈ 12.6 µM)
Cryptococcus neoformans
  MIC50: 16 µg/mL (≈ 12.6 µM)
  MIC90: 16 µg/mL (≈ 12.6 µM)
Trichosporon
  MIC50: 16 µg/mL (≈ 12.6 µM)
Rhodotorula mucilaginosa
  MIC50: 16 µg/mL (≈ 12.6 µM)
